Source: patent US12186283B2, “Bismuth-thiol compositions and methods of use” (Microbion Corporation, priority 2018, dated 2025)
Like-named read-outs stand apart in the source and are kept apart here. *1 amine or outer side, *2 acyl side, *3 side chain or, on linkers, in order; H or OH if unused. Where a SMILES comes first, the peptide text is derived from it. Bridges are numbered along the chain shown (N, C = ends). [ ]: non-standard residue; d: D form. The star is where a group is joined. hTyr(3S-OH,4S-OH,3'-OSO3H) = N[C@H](C(=O)O)[C@H](O)[C@@H](O)c1ccc(O)c(OS(=O)(=O)O)c1; Orn(4R-OH,5R-OH) = O=C([C@H](C[C@@H](O)[C@@H](O)N[*:3])N[*:1])[*:2]; Pro(3S-OH,4S-Me) = C[C@H]1CN[C@H](C(=O)O)[C@H]1O; X1 = CCCCCOc1ccc(-c2cc(-c3ccc(C(=O)*)cc3)no2)cc1; Gln(3R-OH) = NC(=O)C[C@@H](O)[C@H](N)C(=O)O; Hyp = O=C(O)[C@@H]1C[C@@H](O)CN1

Legend:
[1] = system: Burkholderia cepacia complex; assay: Checkerboard FIC assay, BisEDT with CF agents (Example 10); assay type: cell-based, Burkholderia spp.; settings: B. cenocepacia isolate 0548; agent alone, as observed during FIC testing
P. aeruginosa [2] = settings: P. aeruginosa isolate 103, CLSI QC range in parenthesis, cited from earlier work
Pseudomonas aeruginosa [3] = settings: P. aeruginosa ATCC 27853, QC organism; cited from earlier work
P. aeruginosa [4] = assay: Broth microdilution MIC (Example 10)
[5] = system: Burkholderia cepacia complex; assay: Broth microdilution MIC (Example 10); settings: initial MIC testing
Escherichia coli = assay: Broth microdilution MIC (Example 12)
Klebsiella pneumoniae = assay: Broth microdilution MIC (Example 12)
Pseudomonas aeruginosa [6] = assay: Broth microdilution MIC (Example 12)
Acinetobacter baumannii = assay: Broth microdilution MIC (Example 12)
Candida spp. [7] = assay: Broth microdilution MIC, yeast (Example 13), group statement and QC; assay type: cell-based; settings: C. parapsilosis ATCC 22019, comparators, single value
Candida krusei [8] = assay: Broth microdilution MIC, yeast (Example 13); assay type: cell-based; settings: C. krusei ATCC 6258 (QC, Table 110), comparators, single value
Aspergillus spp. = assay: Broth microdilution MIC/MEC, mold (Example 13); assay type: cell-based; settings: MEC
E. coli ATCC 25922 = assay: Broth microdilution MIC, QC organism (Example 13, Table 110); assay type: cell-based, Escherichia coli
Description: (§1) MECs were only reported where observed.

S. aureus ATCC 29213 = assay: as above; assay type: cell-based, Staphylococcus aureus
Description: as §1

Candida spp. [9] = settings: C. parapsilosis ATCC 22019, CLSI established QC range, cited from earlier work
Candida krusei [10] = settings: C. krusei ATCC 6258, CLSI established QC range, cited from earlier work
[11] = A. flavus ATCC 204304 (QC, Table 110)
[12] = A. fumigatus ATCC MYA-3626 (QC, Table 110)

CCCCCOc1ccc(-c2cc(-c3ccc(C(=O)N[C@H]4C[C@@H](O)[C@@H](O)NC(=O)[C@@H]5[C@@H](O)[C@@H](C)CN5C(=O)[C@H]([C@H](O)CC(N)=O)NC(=O)[C@H]([C@H](O)[C@@H](O)c5ccc(O)c(OS(=O)(=O)O)c5)NC(=O)[C@@H]5C[C@@H](O)CN5C(=O)[C@H]([C@@H](C)O)NC4=O)cc3)no2)cc1 [Micafungin] (X1-[Orn(4R-OH,5R-OH)]T[Hyp][hTyr(3S-OH,4S-OH,3'-OSO3H)][Gln(3R-OH)][Pro(3S-OH,4S-Me)]; lactam 1-C)
0.5-2: QC Range 24 hr (Candida spp. [9]; 24 hr)
0.12-0.5: QC Range 24 hr (Candida krusei [10]; 24 hr) | QC Range 48 hr (Candida krusei [10]; 48 hr)
0.06: MIC 24 hr (MEC) (Aspergillus spp.; [11])
0.5-4: QC Range 48 hr (Candida spp. [9]; 48 hr)
> 64 µg/mL: MIC 24 hr (E. coli ATCC 25922) | MIC 24 hr (S. aureus ATCC 29213)
2 µg/mL: MIC 48 hr (Candida spp. [7]; 48 hr)
0.03: MIC 24 hr (MEC) (Aspergillus spp.; [12])
0.5 µg/mL: MIC 24 hr (Candida spp. [7]; 24 hr) | MIC 24 hr (Candida krusei [8]; 24 hr) | MIC 48 hr (Candida krusei [8]; 48 hr)
0.008: MIC 48 hr (MEC) (Aspergillus spp.; [11]) | MIC 48 hr (MEC) (Aspergillus spp.; [12])
